“And” between values parts separate entries of the source, which are not always exact repeats. Equal entries are not always repeated.
Columns and labels:
Mus musculus [1] = experiment: Hypnotic activity expressed as sleeping time was determined in ddN strain mice by the icv administration of 2.0 uMol/mouse of the compound; None indicates that the mouse could not fall into sleep; type: functional, organism-based
Mus musculus [2] = experiment: Hypnotic activity in ddN strain mice by the iv administration of 0.5 mmol/kg; No activity.; type: functional, organism-based
Mus musculus [3] = experiment: Tested for PB (pentobarbital)-induced sleep effect expressed as percent control of sleeping time at a dosage (icv) of 1.0 uM concentration; type: functional
Mus musculus [4] = experiment: Hypnotic activity expressed as sleeping time was determined in ddN strain mice by the icv administration of 3.8 uMol/mouse of the compound; None indicates that the mouse could not fall into sleep; type: functional, organism-based
Mus musculus [5] = experiment: Tested for PB (pentobarbital)-induced sleep effect expressed as percent control of sleeping time at a dosage (icv) of 3.8 uM concentration; type: functional
[6] = Partition coefficient is determined for the compound from its equilibrium concentrations in organic phase to that in aqueous buffer of pH 7.4; type: ADME; settings: octanol/water
Mus musculus [7] = experiment: Hypnotic activity expressed as sleeping time was determined in ddN strain mice by the iv administration of 0.1 mmol/kg of the compound; None indicates that the mouse could not fall into sleep; type: functional, organism-based
Mus musculus [8] = experiment: Hypnotic activity expressed as sleeping time was determined in ddN strain mice by the iv administration of 0.3 mmol/kg of the compound; type: functional
Mus musculus [9] = experiment: Hypnotic activity expressed as sleeping time was determined in ddN strain mice by the icv administration of 2.0 uMol/mouse of the compound; type: functional
Mus musculus [10] = experiment: Hypnotic activity expressed as sleeping time was determined in ddN strain mice by the iv administration of 0.5 mmol/kg of the compound; type: functional
Mus musculus [11] = experiment: Tested for PB (pentobarbital)-induced sleep effect expressed as percent control of sleeping time at a dosage (icv) of 2.0 uM concentration; type: functional
Mus musculus [12] = experiment: Hypnotic activity expressed as ratio of number of animals slept and total number of animals tested was determined in ddN strain mice by the icv administration of 0.3 mmol/kg of the compound; 6/6; type: functional
Mus musculus [13] = experiment: Hypnotic activity expressed as ratio of number of animals slept and total number of animals tested was determined in ddN strain mice by the icv administration of 0.5 mmol/kg of the compound; 4/4; type: functional
Mus musculus [14] = experiment: Hypnotic activity expressed as sleeping time was determined in ddN strain mice by the icv administration of 3.0 uMol/mouse of the compound; type: functional
Mus musculus [15] = experiment: Hypnotic activity expressed as sleeping time was determined in ddN strain mice by the icv administration of 1.0 uMol/mouse of the compound; type: functional
Mus musculus [16] = experiment: Hypnotic activity expressed as ratio of number of animals slept and total number of animals tested was determined in ddN strain mice by the icv administration of 0.1 mmol/kg of the compound; 8/8; type: functional
Mus musculus [17] = experiment: Hypnotic activity expressed as ratio of number of animals slept and total number of animals tested was determined in ddN strain mice by the icv administration of 0.1 mmol/mouse of the compound; 0/8; type: functional
Mus musculus [18] = experiment: Hypnotic activity expressed as ratio of number of animals slept and total number of animals tested was determined in ddN strain mice by the icv administration of 0.3 mmol/mouse of the compound; 7/8; type: functional
Mus musculus [19] = experiment: Hypnotic activity expressed as ratio of number of animals slept and total number of animals tested was determined in ddN strain mice by the icv administration of 0.3 mmol/mouse of the compound; 8/8; type: functional
Mus musculus [20] = experiment: Hypnotic activity expressed as sleeping time was determined in ddN strain mice by the icv administration of 3.8 uMol/mouse of the compound; type: functional
Mus musculus [21] = experiment: Hypnotic activity expressed as sleeping time was determined in ddN strain mice by the iv administration of 0.3 mmol/kg of the compound; None indicates that the mouse could not fall into sleep; type: functional, organism-based
Mus musculus [22] = experiment: Hypnotic activity expressed as sleeping time was determined in ddN strain mice by the icv administration of 0.1 mmol/mouse of the compound; None indicates that the mouse could not fall into sleep; type: functional, organism-based
Mus musculus [23] = experiment: Hypnotic activity expressed as sleeping time was determined in ddN strain mice by the iv administration of 0.5 umol/kg of the compound; None indicates that the mouse could not fall into sleep; type: functional, organism-based
Mus musculus [24] = experiment: Tested for PB (pentobarbital)-induced sleep effect expressed as percent control of sleeping time at a dosage (icv) of 2.4 uM concentration; type: functional
Mus musculus [25] = experiment: Hypnotic activity expressed as ratio of number of animals slept and total number of animals tested was determined in ddN strain mice by the icv administration of 0.3 mmol/kg of the compound; 2/8; type: functional
Mus musculus [26] = experiment: Hypnotic activity expressed as ratio of number of animals slept and total number of animals tested was determined in ddN strain mice by the icv administration of 0.5 mmol/kg of the compound; 5/8; type: functional
Mus musculus [27] = experiment: Hypnotic activity expressed as sleeping time was determined in ddN strain mice by the icv administration of 1.0 uMol/mouse of the compound; None indicates that the mouse could not fall into sleep; type: functional, organism-based
Mus musculus [28] = experiment: Hypnotic activity expressed as ratio of number of animals slept and total number of animals tested was determined in ddN strain mice by the icv administration of 0.1 mmol/kg of the compound; 0/8; type: functional
Mus musculus [29] = experiment: Hypnotic activity expressed as sleeping time was determined in ddN strain mice by the icv administration of 12.0 uMol/mouse of the compound; type: functional

SMILES: O=c1cc[nH]c(=O)[nH]1 [URACIL]
- Sleeping time (Mus musculus [1]): None
- Sleeping time (Mus musculus [2]): None
- Control (Mus musculus [3]): 99%

SMILES: CCn1c(=O)ccn(C2O[C@H](CO)[C@@H](O)[C@H]2O)c1=O (stereo partly drawn)
- Sleeping time (Mus musculus [4]): None
- Sleeping time (Mus musculus [2]): None
- Control (Mus musculus [5]): 124%

SMILES: C=CCn1c(=O)ccn(C2O[C@H](CO)[C@@H](O)[C@H]2O)c1=O (stereo partly drawn)
- Sleeping time (Mus musculus [4]): None
- Sleeping time (Mus musculus [2]): None
- Control (Mus musculus [5]): 173%

SMILES: CC(C)=CCn1c(=O)ccn(C2O[C@H](CO)[C@@H](O)[C@H]2O)c1=O (stereo partly drawn)
- Sleeping time (Mus musculus [4]): None
- Sleeping time (Mus musculus [2]): None
- Control (Mus musculus [5]): 228%

SMILES: O=c1c(F)cn(C2CCCO2)c(=O)n1Cc1ccccc1 (stereo not drawn)
- Partition coefficient [6]: 23.94
- Sleeping time (Mus musculus [7]): None
- Sleeping time (Mus musculus [8]): 2 min
- Sleeping time (Mus musculus [9]): 3 min
- Sleeping time (Mus musculus [10]): 7 min
- Sleeping time (% of control) (Mus musculus [11]): 262%

SMILES: COC[C@H]1O[C@@H](n2ccc(=O)n(Cc3ccccc3)c2=O)[C@H](OC)[C@@H]1OC
- Partition coefficient [6]: 64.45
- Sleeping time (Mus musculus [7]): None
- Sleeping time (Mus musculus [8]): 6 min
- Sleeping time (Mus musculus [9]): 6 min
- Sleeping time (Mus musculus [10]): 29 min
- Sleeping time (% of control) (Mus musculus [11]): 200%

SMILES: O=c1ccn(C2O[C@H](CO)[C@@H](O)[C@H]2O)c(=O)n1Cc1ccc(Cl)cc1 (stereo partly drawn)
- Sleeping time (Mus musculus [9]): 20 min
- Sleeping time (Mus musculus [2]): None
- Control (Mus musculus [5]): 203%

SMILES: Cn1c(=O)ccn(C2O[C@H](CO)[C@@H](O)[C@H]2O)c1=O (stereo partly drawn)
- Sleeping time (Mus musculus [4]): None
- Sleeping time (Mus musculus [2]): None
- Control (Mus musculus [5]): 117%

SMILES: Cc1ccccc1Cn1c(=O)ccn(C2O[C@H](CO)[C@@H](O)[C@H]2O)c1=O (stereo partly drawn)
- Activity (Mus musculus [12]): 6
- Activity (Mus musculus [13]): 4
- Sleeping time (Mus musculus [14]): 129 min
- Sleeping time (Mus musculus [15]): 45 min
- Sleeping time (Mus musculus [9]): 72 min and 70 min
- Sleeping time (Mus musculus [2]): None
- Activity (Mus musculus [16]): 8
- Sleeping time (% of control) (Mus musculus [11]): 344%

SMILES: O=c1ccn(C2O[C@H](CO)[C@@H](O)[C@H]2O)c(=O)n1Cc1ccccc1 (stereo partly drawn)
- Partition coefficient [6]: 2.16
- Activity (Mus musculus [17]): 0
- Activity (Mus musculus [18]): 7
- Activity (Mus musculus [19]): 8
- Sleeping time (Mus musculus [14]): 106 min
- Sleeping time (Mus musculus [20]): 153 min
- Sleeping time (Mus musculus [7]): None
- Sleeping time (Mus musculus [21]): None
- Sleeping time (Mus musculus [9]): 36 min and 28 min
- Sleeping time (Mus musculus [2]): None
- Sleeping time (% of control) (Mus musculus [11]): 292%
- Control (Mus musculus [5]): 404%
- Control (Mus musculus [3]): 154%
- Sleeping time (Mus musculus [22]): None

SMILES: Cc1ccc(Cn2c(=O)ccn(C3O[C@H](CO)[C@@H](O)[C@H]3O)c2=O)cc1 (stereo partly drawn)
- Sleeping time (Mus musculus [9]): 36 min
- Sleeping time (Mus musculus [23]): None
- Sleeping time (% of control) (Mus musculus [11]): 308%

SMILES: O=c1ccn(Cc2ccccc2)c(=O)[nH]1
- Sleeping time (Mus musculus [1]): None
- Sleeping time (Mus musculus [2]): None
- Sleeping time (% of control) (Mus musculus [11]): 86%

SMILES: O=c1ccn([C@@H]2O[C@H](CO)[C@@H](O)[C@H]2O)c(=O)[nH]1 [URIDINE]
- Sleeping time (Mus musculus [4]): None
- Sleeping time (Mus musculus [2]): None
- Control (Mus musculus [24]): 135%
- Control (Mus musculus [5]): 138%
- Control (Mus musculus [3]): 93%

SMILES: CC(=O)OC[C@H]1O[C@@H](n2ccc(=O)n(Cc3ccccc3)c2=O)[C@H](OC(C)=O)[C@@H]1OC(C)=O
- Partition coefficient [6]: 32.73
- Sleeping time (Mus musculus [7]): None
- Sleeping time (Mus musculus [8]): 1 min
- Sleeping time (Mus musculus [9]): 4 min
- Sleeping time (Mus musculus [10]): 5 min
- Sleeping time (% of control) (Mus musculus [11]): 186%

SMILES: CC(c1ccccc1)n1c(=O)ccn(C2O[C@H](CO)[C@@H](O)[C@H]2O)c1=O (stereo partly drawn)
- Activity (Mus musculus [25]): 2
- Activity (Mus musculus [26]): 5
- Sleeping time (Mus musculus [14]): 27 min
- Sleeping time (Mus musculus [27]): None
- Sleeping time (Mus musculus [9]): 7 min
- Sleeping time (Mus musculus [2]): None
- Activity (Mus musculus [28]): 0
- Sleeping time (% of control) (Mus musculus [11]): 231%
- Control (Mus musculus [5]): 303%

SMILES: O=c1[nH]c(=O)n(C2CCCO2)cc1F (stereo not drawn) [TEGAFUR]
- Partition coefficient [6]: 0.35
- Sleeping time (Mus musculus [7]): None
- Sleeping time (Mus musculus [21]): None
- Sleeping time (Mus musculus [1]): None
- Sleeping time (Mus musculus [2]): None
- Sleeping time (% of control) (Mus musculus [11]): 139%

SMILES: O=c1ccn(Cc2ccccc2)c(=O)n1Cc1ccccc1
- Sleeping time (Mus musculus [29]): 15 min
- Sleeping time (Mus musculus [1]): None
- Sleeping time (Mus musculus [10]): 17 min
- Control (Mus musculus [5]): 112%

SMILES: Cc1cccc(Cn2c(=O)ccn(C3O[C@H](CO)[C@@H](O)[C@H]3O)c2=O)c1 (stereo partly drawn)
- Sleeping time (Mus musculus [9]): 56 min
- Sleeping time (Mus musculus [2]): None
- Sleeping time (% of control) (Mus musculus [11]): 326%

SMILES: COC[C@H]1O[C@@H](n2ccc(=O)[nH]c2=O)[C@H](OC)[C@@H]1OC
- Partition coefficient [6]: 2.16
- Sleeping time (Mus musculus [7]): None
- Sleeping time (Mus musculus [21]): None
- Sleeping time (Mus musculus [1]): None
- Sleeping time (Mus musculus [2]): None
- Control (Mus musculus [11]): 144%

SMILES: CC(=O)OC[C@H]1O[C@@H](n2ccc(=O)[nH]c2=O)[C@H](OC(C)=O)[C@@H]1OC(C)=O [URIDINE TRIACETATE]
- Sleeping time (Mus musculus [9]): 8 min
- Sleeping time (Mus musculus [2]): None
- Sleeping time (% of control) (Mus musculus [11]): 178%

SMILES: CCCn1c(=O)ccn(C2O[C@H](CO)[C@@H](O)[C@H]2O)c1=O (stereo partly drawn)
- Sleeping time (Mus musculus [4]): None
- Sleeping time (Mus musculus [2]): None
- Control (Mus musculus [5]): 134%
